Reference: US20220218834A1, “APOHEMOGLOBIN-HAPTOGLOBIN COMPLEXES AND METHODS OF USING THEREOF” (OHIO STATE INNOVATION FOUNDATION, priority 2019, published 2022)

Assays:
[1] = tested on: normal cells (NOR-10, MCF 10A); test: Cell viability (MTT) without laser irradiation, normal cells; assay type: cell-based, murine and human; conditions: without laser irradiation (dark)
Method: (§1) Cell Culture. Cancerous (4T1 [murine] and MDA-MB-231 [human]) and noncancerous (NOR-10 [murine] and MCF-10A [human]) cell lines were purchased from American Type Culture Collection (ATCC, Manassas, Va.). All cells were cultured in DMEM, and supplemented with 10% (v:v) fetal bovine serum and 1% (v:v) antibiotic solution (100 IU/mL penicillin and […]). All cells were maintained at 37° C. in 5% CO2 and in a humidified atmosphere.
(§2) PDT. For PDT, 4T1, MDA-MB-231, NOR-10, and MCF-10A cells were cultured for 24 hours at a density of 5×10^3 on coverslips. Next, cells were exposed to Al-PC, apoHb-Al-PC-Hp, and apoHb-Hp in culture medium at different concentrations. Later, the cells were irradiated with a laser (λ=670 nm) at energy densities between 0.0 J/cm2 and 4 J/cm2 for 15 minutes in the dark.
(§3) Cell Viability. Cell viability was assessed using the MTT assay, which is converted by the mitochondria of viable cells to an insoluble purple precipitate. Briefly, after receiving their treatment, cells were washed with PBS twice and then incubated with 0.5 mg/mL of MTT in culture medium for 2 hours. Then, the MTT solution was washed away, and the purple precipitate was extracted from the cells with 150 μL of dimethyl sulfoxide (DMSO). The absorption was then measured at λ=595 nm using a spectrophotometer (Spectramax; Molecular Devices).

[2] = tested on: cancerous cells (4T1, MDA-MB-231); assay type: cell-based; conditions: without laser irradiation (dark)
Method: as §1, §2, §3

[3] = unit not given; cited from earlier work
[4] = Stability of apoHb-Al-PC on dialysis against PBS; assay type: physicochemical
Method: Stability of ApoHb-Al-PC. […] The sample was then dialyzed against PBS using 6-8 kDa cellulose dialysis membranes to remove any residual EtOH. Dialysis was performed over three days with daily exchange of the PBS buffer. The UV-visible absorbance spectra of samples were measured before and after dialysis.

Hp [5] = test: HPLC-SEC of apoHb-Mn-IX binding to Hp; parameters: species or system human; conditions: excess apoHb, detection of Mn-IX
Method: Diagnostic/therapeutic solutions tested here consisted of either Mn-porphyrin IX chloride (Mn-IX) or aluminum phthalocyanine (Al-PC) chloride. The Mn-IX solution was made by dissolving 2.5 mg of Mn-IX in 0.5 mL of 0.1 M NaOH. For Al-PC, 1 mg of Al-PC was dissolved in 1 mL of pure EtOH, then 50 μL of the saturated solution was diluted into 1 mL of pure EtOH (the second dilution ensured that the Al-PC is monomeric in solution). […] From the stock diagnostic/therapeutic solutions, either 2 μl of the stock Mn-IX or 100 μl of the Al-PC solutions was added to the protein samples. The resultant mixtures had their absorbance spectras measured via UV-visible spectroscopy and were separated via size exclusion chromatography (SEC) using an Acclaim SEC-1000 (4.6×300 mm) column (Thermo Fisher Scientific, Waltham, Mass.) attached to a Dionex UltiMate 3000 system (Thermo Fisher Scientific, Waltham, Mass.). The mobile phase consisted of 50 mM potassium phosphate, pH 7.4.
Target sequence in this assay (P00738 19-160 limits assumed): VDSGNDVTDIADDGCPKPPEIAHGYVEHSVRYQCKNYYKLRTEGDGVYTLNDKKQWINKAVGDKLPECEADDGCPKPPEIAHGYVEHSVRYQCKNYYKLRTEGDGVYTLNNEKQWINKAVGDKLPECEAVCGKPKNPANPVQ
Target sequence in this assay (P00738 162-406 limits assumed): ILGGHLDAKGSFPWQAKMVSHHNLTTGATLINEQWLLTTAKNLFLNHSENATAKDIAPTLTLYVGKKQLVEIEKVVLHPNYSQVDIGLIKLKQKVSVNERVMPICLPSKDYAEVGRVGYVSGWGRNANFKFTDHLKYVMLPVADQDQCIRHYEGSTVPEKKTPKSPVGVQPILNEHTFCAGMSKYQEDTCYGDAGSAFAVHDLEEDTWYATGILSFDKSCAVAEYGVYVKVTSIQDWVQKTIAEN
Target sequence in this assay (P69905 2-142 partner limits assumed): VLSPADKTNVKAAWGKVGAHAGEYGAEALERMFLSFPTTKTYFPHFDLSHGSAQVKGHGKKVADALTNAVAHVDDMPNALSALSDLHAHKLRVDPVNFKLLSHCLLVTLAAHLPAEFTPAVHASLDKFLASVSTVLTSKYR
Target sequence in this assay (P68871 2-147 partner limits assumed): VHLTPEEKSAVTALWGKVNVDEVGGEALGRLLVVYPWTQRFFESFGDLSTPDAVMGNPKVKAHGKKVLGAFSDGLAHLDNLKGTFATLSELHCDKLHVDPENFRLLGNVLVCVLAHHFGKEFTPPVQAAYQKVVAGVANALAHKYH

Hp [6] = conditions: cited from earlier work
Target sequence in this assay (P00738 162-406 limits assumed): as the sequence (P00738 162-406 limits assumed) above

[7] = Rheology of PolyHb solutions (cone and plate rheometer); assay type: physicochemical
From the text: (§4) The Hb used in this exampler was purified from human RBCs via tangential flow filtration (TFF), as described previously. Hb was polymerized with glutaraldehyde under complete deoxygenation in the tense (T) quaternary state at a 25:1 molar ratio of glutaraldehyde to Hb. After polymerization, PolyHb was clarified, purified, and buffer exchanged into a modified Ringer's lactate solution using TFF. Modified polyester sulfone hollow fiber filters with a molecular weight cutoff (MWCO) of 100 kDa were used to remove unpolymerized Hb from solution. The PolyHb solution was concentrated to 12 g/dL. […] The size distribution of PolyHb, by particle volume, was measured using dynamic light scattering (DLS) (Brookhaven Instrument Inc. BS-200M, Holtsville, N.Y.). The rheology of PolyHb solutions was measured using a DV3T-CP cone and plate rheometer (Brookfield AMETEK, Middleboro, Mass.) with cone spindle CPA-40Z. The O2-Hb/PolyHb equilibrium binding curves were measured using a Hemox Analyzer (TCS Scientific Corp., New Hope, Pa.). The Hb/PolyHb kinetics of O2 offloading (koff,O2) and NO dioxygenation kinetics (kox,NO) were measured with an Applied Photophysics SF-17 microvolume stopped-flow spectrophotometer (Applied Photophysics Ltd., Surrey, United Kingdom) using protocols previously described by Rameez and Palmer. […]

[8] = O2-Hb/PolyHb equilibrium binding curves (Hemox Analyzer); assay type: biochemical
From the text: as §4

Hp [9] = test: Kinetics of Hp binding to Hb and PolyHb, stopped-flow fluorescence; parameters: species or system human; conditions: 20° C., PBS 0.1 M pH 7.4
Method: The Hp used for this study was purified from human Cohn Fraction IV derived from pooled human plasma. The resulting Hp contained both Hp2-1 and Hp2-2 phenotypes. The total amount of protein in solution was estimated with a Bradford assay. The Hb binding capacity of Hp was assessed by monitoring Hb binding to Hp at 413 nm with HPLC-SEC and was used to quantify the concentration of Hp. The reaction of Hp with either unmodified human Hb or PolyHb synthesized in this study was monitored using an SX-20 stopped stopped-flow spectrophotometer using previously described methods (Applied Photophysics, Leatherhead, UK). Excess Hp (2:1, Hp:PolyhHb on a Hb tetramer binding basis) was allowed to react with PolyHb to form the resulting Hp-PolyHb complex. The resulting changes in size distribution after Hp binding was estimated with HPLC-SEC using previously described methods. All measurements were taken from the same sample used in the animal study.
Target sequence in this assay (P00738 162-406 limits assumed): as above

[10] = Specificity of Al-PC binding to proteins (UV-visible absorbance at 680 nm); conditions: absorbance at 680 nm after Al-PC addition in PBS
Method: The stock Al-PC solution was diluted 100× into 100% EtOH.
The concentrations of Hp, HSA, Hb and rHb in solution were 1.0 mg/mL, 0.35 mg/ml (and 3.5 mg/ml), 0.35 mg/mL, and 0.33 mg/mL respectively.

[11] = Hb/PolyHb NO dioxygenation kinetics, stopped-flow; assay type: biochemical; conditions: 20° C., 0.1 M pH 7.4 PBS
From the text: as §4

[12] = O2 equilibrium binding curves of rHb and native Hb (Hemox analyzer); assay type: biochemical; conditions: 37° C.; for P50: O2 affinity; for N (cooperativity coefficient n): O2 equilibrium
Method: rHb Analysis. Various liganded forms of rHb were analyzed via UV-Vis spectroscopy and compared against native Hb. The oxy-rHb and oxyHb equilibrium binding curves were measured using a Hemox analyzer (TCS Scientific Corp., New Hope, Pa.) at 37° C. The spectra of rHb was measured after one day reaction with excess heme (stage 1), after reduction and diafiltration with the modified HEMOX buffer (stage 2), after placing the rHb mixture under a CO atmosphere (stage 3), after heating the CO-rHb mixture and removing precipitate (stage 4), and after re-oxygenating the rHb sample (stage 5). Spectral deconvolution software was developed in the Python programming language (Python Software Foundation Beaverton, Oreg.) using the non-linear least squares function curve_fit of the SciPy package to determine the fraction of various liganded forms of rHb that contribute to the final spectra of the rHb mixture (i.e. containing metHb, hemichrome, oxyHb, HbCO and heme).

[Cl][Al]1[n]2c3c4ccccc4c2N=C2N=C(N=c4c5ccccc5c([n]41)=NC1=NC(=N3)c3ccccc31)c1ccccc12 [Al-PC, aluminum phthalocyanine chloride]
lethal dose for 50% cell-death (LD50) [1]: 10 µM | lethal dose for 50% cell-death (LD50) [2]: 7 µM

Hb in human RBCs: Hb in human red blood cells, literature O2 affinity
O2 affinity P50, literature [3]: 29.3

apoHb-Al-PC: Al-PC bound to apoHb
stability in aqueous solution [4]: not stable in aqueous solution

apoHb-Mn-IX: Mn-porphyrin IX bound to apoHb
affinity of Hp (Hp [5]): higher affinity for apoHb-Mn-IX than to pure apoHb

hHb: human hemoglobin prepared from red blood cells via tangential flow filtration [reference compound]
rate constant of Hp binding, literature (Hp [6]): 129000 M⁻¹ s⁻¹ | viscosity [7]: 1.2±0.2 cP | cooperativity n [8]: 2.51±0.06 | oxygen affinity P50 [8]: 12.4±1.3 mm Hg | rate constant of Hp binding (Hp [9]): 150000 ± 1000 M⁻¹ s⁻¹ | Al-PC binding [10]: no appreciable binding of Al-PC | rate of NO dioxygenation kox,NO [11]: 36.0±6.1 | P50 [12]: 11.69 ± 0.88 mm Hg | P50 ([12]; listed as Native hHb): 11.33±0.02 mm Hg | P50 ([12]; listed as native Hb): 11.69±0.88 mm Hg | N (cooperativity coefficient n) [12]: 2.73 ± 0.11^ | N (cooperativity coefficient n) ([12]; listed as Native hHb): 2.60±0.01 | N (cooperativity coefficient n) ([12]; listed as native Hb): 2.73±0.11
